Data reported in US12209099B2, “Azetidobenzodiazepine dimers and conjugates comprising them for use in the treatment of cancer” (MEDIMMUNE LIMITED, priority 2019, dated 2025).

Test system: carcinoma cell line NCI-N87
Test: Cytotoxicity assay of warheads (MTS, 7 days)
Type: cell-based
Conditions: Homo sapiens, 168 h, NCI-N87, 7 days incubation, mean of three independent replicates
Experimental: The potency of the molecules were measured via in vitro cytotox assays in the carcinoma cell line NCI-N87.
Solid material was dissolved in DMSO to a 2 mM stock solution, from which eight serial dilutions were made at a 1:10 ratio in DMSO and stored at −20° C. until use.
Adherent NCI-N87 cells were washed with D-PBS and detached with Trypsin-EDTA, cell density and viability were then determined in duplicate by Trypan blue exclusion assay using an automated cell counter (LUNA-II™). Cell suspension was diluted to 1×10^5 cells/ml in growth media (RPMI 1640 with Glutamax+10% (v/v) HyClone™ Fetal Bovine Serum) and vortexed before dispensing 2 mL per well into sterile 3 mL polypropylene plates. Warhead dilutions were then dispensed into the appropriate wells at 10 μl/well and mixed by repeat pipetting. For control wells 10 μl of DMSO was dispensed onto 2 mL cell suspension, and thoroughly mixed. 100 μl of each sample was then aliquoted into 2 replicate wells of a sterile flat 96-well microplate and incubated in a 37° C. CO2-gassed (5%) incubator. At the end of the incubation period time (7 days), cell viability was measured by CellTiter 96 Aqueous One (MTS) assay, which was dispensed at 20 μl/well and incubated for 4 hours at 37° C., 5% CO2. Plates were then read on an EnVision Multi-label Plate Reader (Perkin Elmer) using absorbance at 490 nm.
Cell survival percentage was calculated from the mean absorbance of the 2 replicate wells for each sample, compared to the mean absorbance in the two control wells treated with DMSO only (100%). The IC50 was determined by fitting each data set to sigmoidal dose-response curves with a variable slope using the non-linear curve fit algorithm on the GraphPad Prism software (San Diego, CA).
All the experiments in this report were carried out and tested in three independent experiments. Data are reported as the mean of the three independent replicates.

| Structure (SMILES) | IC50 |
| --- | --- |
| COc1cc2c(cc1OCCCCCOc1cc3c(cc1OC)C(=O)N1CC[C@H]1C=N3)N=C[C@@H]1CCN1C2=O [Ex1, (10aS,10a′S)-7,7′-(pentane-1,5-diylbis(oxy))bis(6-methoxy-1,10a-dihydroazeto[1,2-a]benzo[e][1,4]diazepin-4(2H)-one)] | 2.2 nM |
| COc1cc2c(cc1OCCCOc1cc3c(cc1OC)C(=O)N1CC[C@H]1C=N3)N=C[C@@H]1CCN1C2=O [Ex2A, (10aS,10a′S)-7,7′-(propane-1,3-diylbis(oxy))bis(6-methoxy-1,10a-dihydroazeto[1,2-a]benzo[e][1,4]diazepin-4(2H)-one)] | 70.1 nM |
| COc1cc2c(cc1OCc1cccc(COc3cc4c(cc3OC)C(=O)N3CC[C@H]3C=N4)c1)N=C[C@@H]1CCN1C2=O [Ex2B, (10aS,10a′S)-7,7′-((1,3-phenylenebis(methylene))bis(oxy))bis(6-methoxy-1,10a-dihydroazeto[1,2-a]benzo[e][1,4]diazepin-4(2H)-one)] | 4.04 nM |
